The test system of one assay is HUVEC migration. Description: VEGF-mediated HUVEC transwell migration assay. It counts as cell-based, human. As to the method: Figure 5 Cell migration on VEGF-mediated HUVECs. The percentage of HUVEC migration was analyzed using Prism Version 6 (GraphPad). (A–T) VEGF was used as a positive control with 100% HUVEC migration. All peptides were tested at concentrations ranging from 0.001–50 μM except for cilengitide and octreotide, which were tested in 10-fold dilutions from 10 μM. Peptides were added in the presence of 0.3 nM VEGF (bottom chamber). Data are shown as mean ± SD (n ≥ 3). Data were normalized to the mean VEGF control. P-values are represented as follows: ****p ≤ 0.0001, ***p ≤ 0.001, **p ≤ 0.01, and *p ≤ 0.05.
A cell migration assay was performed as described by Chan et al.[45] HUVECs between passages three and ten were used. Briefly, initial peptide concentrations of 10–500 μM were prepared for all peptides except SFTI-SST-01, MCo-SST-01, SFTI-SST-02, MCo-SST-02, SFTI-PEDF, MCo-PEDF (0.01–500 μM), cilengitide, octreotide, and MCoAA-02 (1 × 10^−7 M–100 μM). To the apical well, 100 μL of 1 × 10^5 cells/well were seeded and 600 μL of medium supplemented with or without 0.3 nM VEGF (Sigma, catalogue no. V7259) was added to the basolateral well. The well containing cells with 0.1% FBS/EGM-2 basal medium was used as a negative control, and the well containing cells with 0.3 nM VEGF was used as a positive control. All peptides were stimulated with 0.3 nM VEGF. Experiments were done in triplicate. […]

Another assay has as its system HUVEC. Kind of assay: cells. Conditions: read-out: IC50 ± S.D., 48 hours, HUVEC. As to the method: (§1) HUVECs (human umbilical vein endothelial cells) were cultured in EGM™-2 BulletKit™ supplemented with SingleQuots™ (supplements: growth factors, cytokines, antibiotics; Lonza) and 10% FBS (catalog no. FFBS-500; Scientifix). Both HT-29 and MCF-7 cells were cultured in 10% FBS/DMEM (Dulbecco’s Modified Eagle Medium) with 1% penicillin–streptomycin (5000 U/mL; Life Technologies), whereas PC3 cells (prostate cancer cells) were cultured in 10% FBS/RPMI (Roswell Park Memorial Institute) 1640 with 1% penicillin–streptomycin (5000 U/mL; Life Technologies). All cells were maintained at 37 °C in 5% CO2.
(§2) Cell cytotoxicity and proliferation assays were performed using similar methods to those described by Chan et al.[45]. All cells were maintained using the media conditions described above, and passages two to ten were used for all cell lines. For all cell lines, 5.0 × 10^3 cells/well (100 μL) and 1.5 × 10^3 cells/well (100 μL) were used for cell cytotoxicity and cell proliferation assays, respectively. All peptides (10 μL, at final concentrations ranging from 0.05–100 μM) and drugs, which included cilengitide, octreotide and sunitinib (at final concentrations ranging from 0.00001–100 μM), were used in both assays. Triton X-100 (0.1% (v/v); 10 μL) was used as a positive control. Cells were treated with fresh media the day after plating, before the addition of peptides, followed by a subsequent 2-h and 48-h incubation for cell cytotoxicity and cell proliferation, respectively. After different incubation periods, 3-(4, 5-dimethylthiazolyl-2)-2,5-diphenyltetrazolium bromide (MTT) (10 μL; 5 mg/mL in PBS) was added, and cells were incubated for a further 4 h. The supernatant was then removed and 100 μL DMSO added to solubilize formazan salts. Experiments were performed in triplicate. Cell numbers were recorded at 600 nm. All data represent average mean ± SD.

A further assay concerns PC3. Description: cells. The conditions noted are these: read-out: IC50 ± S.D., 48 hours, PC3. As to the method:
as §1, §2

In another assay the test system is MCF-7. Description: cells. The conditions noted are these: read-out: IC50 ± S.D., 48 hours, MCF-7. As to the method: as §1, §2
Another assay concerns HT-29. Kind of assay: cells. The conditions noted are these: read-out: IC50 ± S.D., 48 hours, HT-29. On the procedure: as §1, §2
The mark [1] stands for this setting: cell proliferation inhibition, MTT, 48-h incubation, 1.5 × 10^3 cells/well, triplicate, mean ± SD.

Data on 2 molecules can be found in paper PMC5062114, “Dual-targeting anti-angiogenic cyclic peptides as potential drug leads for cancer therapy” (Scientific Reports, 2016).

The structures appear in SMILES notation. Like-named read-outs stand apart in the source and are kept apart here. Bridge positions count the residues as written; N and C are the ends. Square brackets hold non-standard residues; d marks the D form. Peptide text beside a SMILES is read from it.

With `CC[C@H](C)[C@@H]1NC(=O)[C@@H]2CSSC[C@@H]3NC(=O)[C@H](C(C)C)NC(=O)CNC(=O)CNC(=O)[C@H](CC(=O)O)NC(=O)[C@H](CO)NC(=O)CNC(=O)[C@H](CO)NC(=O)CNC(=O)[C@@H]4CSSC[C@H](NC(=O)[C@H](CC(=O)O)NC(=O)[C@H](CO)NC(=O)[C@H](CC(=O)O)NC(=O)[C@H](CCCNC(=N)N)NC(=O)[C@H](CCCNC(=N)N)NC(=O)[C@H](CSSC[C@H](NC1=O)C(=O)N[C@@H](CCCNC(=N)N)C(=O)N[C@@H](Cc1ccc(O)cc1)C(=O)N[C@H](Cc1c[nH]c5ccccc15)C(=O)N[C@@H](CCCCN)C(=O)N[C@@H](C(C)C)C(=O)N4)NC(=O)[C@H](CCCCN)NC(=O)[C@H](CCCCN)NC(=O)[C@H](CC(C)C)NC(=O)[C@H]([C@@H](C)CC)NC(=O)[C@H](CCCCN)NC(=O)[C@@H]1CCCN1C3=O)C(=O)N1CCC[C@H]1C(=O)NCC(=O)N[C@@H](C)C(=O)N2` [MCo-SST-01] (cyclo(ACICRY[dW]KVCGSGSDGGVCPKILKKCRRDSDCPG); disulfide 2-19, 4-26, 10-32 (inferred); ring closure inferred), the IC50 was 5 nM with HUVEC migration (transwell, 0.3 nM VEGF in bottom chamber, normalized to VEGF control = 100% migration, n ≥ 3, read-out: concentration giving 50% inhibition of HUVEC migration); 17.12 ± 0.05 µM with HUVEC (setting [1]); 85.44 ± 0.08 µM with PC3 (setting [1]); above 100 µM in the assay with MCF-7 (setting [1]); 74.13 ± 0.07 µM in the assay with HT-29 (setting [1]).

In the assay on HUVEC migration (Homo sapiens, HUVEC, 10 μM, 0.3 nM VEGF), `CCN(CC)CCNC(=O)c1c(C)[nH]c(/C=C2\C(=O)Nc3ccc(F)cc32)c1C` [sunitinib, Sunitinib malate, reference compound] gave an inhibition at 10 µM of 100%. Besides, the IC50 in the assay with HUVEC (Homo sapiens, 48 h) was 19.1 ± 0.46 µM; with PC3 (Homo sapiens, PC-3, 48 h), 16.2 ± 0.26 µM; with MCF-7 (Homo sapiens, MCF7, 48 h), 17.07 ± 0.11 µM; with HT-29 (Homo sapiens, HT-29, 48 h), 1.43 ± 0.24 µM.
